# Measured values published in patent publication US12329732B2, “Citrulline for treatment of sickle cell crisis” (Vanderbilt University, priority 2017, dated 2025).
# “And” between values parts separate entries of the source, which are not always exact repeats. Identical values can stand only once. Like-named read-outs stand apart in the source and are kept apart here.
# Experiments:
# [1] = children with VOC; cited from earlier work
# NO formation = conditions: oral arginine, cited from earlier work
# NO production = conditions: acute arginase-induced arginine deficiency; cited from earlier work
# [2] = normal volunteers; cited from earlier work
# [3] = Safety / adverse events (NCI CTCAE) of intravenous citrulline in patients with sickle cell disease; format: in vivo, human
# Method: (§1) Background: Hemolysis associated nitric oxide (NO) depletion plays a central role in the pathogenesis of vaso-occlusion in sickle cell disease (SCD). Citrulline is an effective NO booster, even during conditions of inflammation and acute arginase-induced arginine deficiency, characteristic of SCD.
# (§2) Methods: Each cohort of participants received an intravenous bolus of 20 mg/kg of citrulline over five minutes with dose increments of 10 mg/kg until a target plasma citrulline level of 80 to 100 μmol/L. FIG. 1. Plasma samples were collected at certain time points for pharmacokinetic studies. Adverse events were followed according to the NCI Common Terminology Criteria for Adverse Events (CTCAE).
# [4] = oral twice daily, approximately 0.1 g/kg daily, steady state, cited from earlier work
# [5] = cited from earlier work
# [6] = Plasma arginine level after intravenous bolus citrulline in patients with sickle cell disease; format: in vivo, human; conditions: within one hour of bolus intravenous citrulline 20 mg/kg; all subjects
# Method: as §2
# [7] = Pharmacokinetics of intravenous bolus citrulline in patients with sickle cell disease; format: in vivo, human; conditions: for clearance: iv
# Method: as §1, §2
# [8] = Oral citrulline in ICU patients: reaching target citrulline level; format: in vivo, human; conditions: administered orally in an ICU
# From the text: Oral administration of citrulline obligates the citrulline to pass through the gut and then the liver which removes the citrulline. This is due to the absorption of the citrulline from the gut and transport directly to the liver by the hepatic portal vein in the first pass through the patient's system. […] This would require multiple dosing regimen to achieve a therapeutic plasma level of citrulline. Thus, it is preferable for citrulline therapy to administer the active agent in a manner which bypasses the gut.
# [9] = inhaled, versus placebo; cited from earlier work
# [10] = bolus intravenous citrulline in patients with SCD
# [11] = Average of patients 1-4, 20 mg/kg intravenous bolus
# [12] = individual patients, 20 mg/kg intravenous bolus over 5 minutes, 20 mg/kg
smiles,measurement,setting,value
N=C(N)NCCC[C@H](N)C(=O)O [arginine],pain scores,[1],lowered pain scores
same,parenteral opioid use,[1],reducing parenteral opioid use
same,increase of NO formation,NO formation; normal controls,68%
same,change in NO,"NO formation; steady-state SCD patients, not overcome by higher doses",paradoxical decrease in NO
same,NO production,NO production,did not increase NO production
"NC(=O)NCCCC(N)C(=O)O (centres unmarked) [citrulline, 2-amino-5-(carbamoylamino)pentanoic acid]",circulating arginine concentrations versus oral arginine,[2],increases circulating arginine concentrations more than oral arginine
same,other side effects,"[3]; 20 mg/kg intravenous bolus, four participants",no other reported side effects
same,safety and tolerability,[3]; [10],safe and well tolerated
same,transient drop of diastolic blood pressure,"[3]; one subject, within 30 minutes of study drug, no intervention needed",> 20%
same,symptoms of well-being,[4]; ages 10-18,dramatic improvements
same,plasma arginine levels,[4],raised plasma arginine levels
same,total leukocyte and segmented neutrophil counts,[4],reductions in high total leukocyte and high segmented neutrophil counts toward or to within normal limits
same,safety and plasma citrulline levels,[5]; intravenous citrulline (Barr 2007),may be administered safely to increase and maintain plasma citrulline levels
same,safety and plasma citrulline levels,[5]; oral citrulline (Smith 2006),may be administered safely to increase and maintain plasma citrulline levels
same,rise in arginine level (mean increment),[6],182%
same,NO production,NO production,increased NO production
same,microcirculatory flow,NO production,improved microcirculatory flow
same,Krem,[7]; [11],1.06 h⁻¹
same,V,[7]; [11],0.50 L/kg
same,clearance (in words),[7]; [10],rapid clearance
same,mean peak level (plasma citrulline),"[7]; first cohort of four participants, intravenous bolus infusion of 20 mg/kg",259 µmol/L
same,clearance,"[7]; human, plasma, 20 mg/kg, Average of patients 1-4, 20 mg/kg intravenous bolus",8.67 mL/min/kg
same,clearance,"[7]; human, plasma, 20 mg/kg, individual patients, 20 mg/kg intravenous bolus over 5 minutes",11.7 mL/min/kg
same,concentration at 4 h,"[7]; human, plasma, 4 hours after the infusion, 20 mg/kg intravenous bolus, read-out: trough level (plasma citrulline)",20 to 40 µM
same,CL,[7]; [12],8.5 mL/min/kg and 6.83 mL/min/kg and 7.67 mL/min/kg
same,Krem,[7]; [12],1.01 1/hr (2×) and 1.34 1/hr and 0.89 1/hr
same,V,[7]; [12],0.70 L/kg and 0.38 L/kg and 0.46 L/kg (2×)
same,patients who met the target level of citrulline,[8],2 out of 3
"[N]=O [iNO, nitric oxide]",effect on time-to-resolution of vaso-occlusive crisis,[9],no effect
